Where a name gives a salt, the structure may show the parent alone. Read-outs that look alike come from different tables or passages of the source.
Legend:
[1] = biological target: T1, β-catenin/BCL9 interaction (Homo sapiens, UniProt P35222); conditions: reported in the literature; cited from earlier work
T1 sequence (P35222 1-781): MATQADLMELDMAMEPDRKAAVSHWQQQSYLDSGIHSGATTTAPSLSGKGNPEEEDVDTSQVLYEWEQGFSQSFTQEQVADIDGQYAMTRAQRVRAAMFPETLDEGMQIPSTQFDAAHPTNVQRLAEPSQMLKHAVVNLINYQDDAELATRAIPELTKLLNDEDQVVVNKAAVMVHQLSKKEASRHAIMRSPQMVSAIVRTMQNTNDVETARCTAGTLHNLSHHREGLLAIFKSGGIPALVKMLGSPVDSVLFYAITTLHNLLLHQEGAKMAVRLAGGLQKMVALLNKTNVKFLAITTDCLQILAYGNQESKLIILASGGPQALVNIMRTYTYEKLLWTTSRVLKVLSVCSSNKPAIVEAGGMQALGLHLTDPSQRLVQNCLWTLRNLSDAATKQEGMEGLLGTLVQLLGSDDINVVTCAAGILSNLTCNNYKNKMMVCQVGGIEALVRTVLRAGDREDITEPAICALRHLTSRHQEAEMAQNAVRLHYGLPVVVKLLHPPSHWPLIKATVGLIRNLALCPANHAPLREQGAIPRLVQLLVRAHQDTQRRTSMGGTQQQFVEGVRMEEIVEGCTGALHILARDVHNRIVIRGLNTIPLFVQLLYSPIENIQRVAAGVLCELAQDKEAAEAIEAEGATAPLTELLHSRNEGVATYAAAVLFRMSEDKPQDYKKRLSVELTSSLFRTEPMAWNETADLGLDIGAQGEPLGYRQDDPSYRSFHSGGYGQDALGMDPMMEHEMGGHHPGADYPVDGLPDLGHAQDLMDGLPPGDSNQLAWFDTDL

Wnt target genes = conditions: reported in the literature; cited from earlier work
β-catenin/BCL9 PPI = biological target: T2, β-catenin/BCL9 PPI (Homo sapiens, UniProt P35222); test: AlphaScreen competitive inhibition assay of the β-catenin/BCL9 PPI; type: binding; conditions: mean ± SD, triplicate, Ki derived from IC50 (Nikolovska-Coleska equation)
T2 construct: Wild-type full-length β-catenin were cloned into a pET-28b vector; made in house; host or cells: Escherichia coli BL21 DE3 (β-catenin); BCL9 peptide chemically synthesized
T2 sequence (P35222 1-781): T1 sequence (P35222 1-781)
Procedure: Protein expression and purification. Wild-type full-length β-catenin were cloned into a pET-28b vector carrying a C-terminal 6×histidine (Novagen), and transformed into Escherichia coli BL21 DE3 (Novagen). Cells were cultured in LB medium with 30 μg/mL kanamycin until the OD600 was approximately 0.8, and then protein expression was induced with 400 μM of IPTG at 20° C. overnight. Cells were lysed by sonication. The proteins were purified by Ni-NTA affinity chromatography (30210, Qiagen) and dialyzed against a buffer containing 20 mM of Tris (pH 8.5), 100 mM NaCl, 10% glycerol, and 3 mM DTT. The purity of β-eaten in was greater than 95% as determined by SDS-PAGE gel analysis. Native non-denaturing gel electrophoresis was performed to confirm the homogeneity of the purified proteins. Thermal-shift assay was performed on an iCycler iQ Real Time Detection System (Bio-Rad) to monitor protein stability and detect protein aggregation. Protein unfolding was evaluated through measuring the S15 fluorescence changes of fluorescent dye Sypro Orange when interacting with wild-type or mutant β-catenin proteins. A temperature increment of […] was applied. CD spectra were measured on a J-815 spectropolarimeter (Jasco). All spectra were recorded at room temperature, and the baseline control containing all of the substances except protein. Sample were prepared at a concentration around 1-5 μM in a buffer of 10 mM potassium phosphate and 100 mM potassium fluoride at pH 7.0 to ensure that the transmission of light through the sample was not restricted. All proteins were stable and no aggregation was observed under storage or assay conditions. Proteins were aliquoted and stored at −80° C.
BCL9 peptide synthesis and purification. Human BCL9 (residues 350-375), and […] biotinylated human BCL9 (residues 350-375) were synthesized. All synthesized peptides were purified by HPLC with purity >95%. The structures were validated by LC/MS. The sequences are as follows (Ahx, 6-aminohexanoic acid).
AlphaScreen competitive inhibition assays. For the competitive inhibition assays of the β-catenin/BCL9 PPI, the negative control (equivalent to 0% inhibition) refers to 5.0 nM of biotinylated BCL9, 40 nM of His6-tagged β-catenin, and 10 μg/mL of donor and acceptor beads in a final volume of 25 μL assay buffer, but no tested inhibitor present. The positive control (equivalent to 100% inhibition) refers to 5.0 nM of biotinylated BCL9 and […] of donor and acceptor beads in a final volume of 25 μL assay buffer.
For the β-catenin/BCL9 assay, 5 nM of biotinylated BCL9 and 40 nM of His6-tagged β-catenin were incubated in assay buffer at 4° C. for 30 min. Different concentrations of the tested inhibitor were added and incubated in 20 μL assay buffer at 4° C. for another 1 h. All of the above assay plates were covered and gently mixed on an orbital shaker. The donor and acceptor beads were then added to the plates to a final concentration of 10 μg/mL in 25 μL assay buffer. The mixture was incubated for 1 h at 4° C. before detection. The IC50 value was determined by nonlinear least-square analysis of GraphPad Prism 5.0. The Ki values were derived from the IC50 values using a method reported by Nikolovska-Coleska et al (Nikolovska-Coleska, Z.; Wang, R.; Fang, X.; Pan, H.; Tomita, Y.; Li, P.; Roller, P. P.; Krajewski, K.; Saito, N. G.; Stuckey, J. A.; Wang, S. Development and optimization of a binding assay for the XIAP BIR3 domain using fluorescence polarization. Anal. Biochem. 2004, 332, 261-273.). The assays were conducted under the conditions required by Nikolovska-Coleska et al.'s equation for determining the Ki values. All of the experiments were performed in triplicate. The results were expressed as mean±standard deviation.

Ki (β-catenin/BCL9 PPI; experiment 3, read-out: Ki (μM ± SD) experiment 3) [µM]	Ki (β-catenin/BCL9 PPI; experiment 4, read-out: Ki (μM ± SD) experiment 4) [µM]	Compound	disruption of the β-catenin/BCL9 interaction [1]	suppression of Wnt target gene / β-catenin-dependent transcription (Wnt target genes)
		CC(C)c1cc2c(c(O)c1O)[C@@]1(C(=O)O)CCCC(C)(C)[C@@H]1CC2 [camosic acid, Carnosic acid]	can disrupt the β-catenin/BCL9 interaction	inhibit β-catenin-dependent transcription
790 ± 58	780 ± 130	CC[C@H]1CN(C(=O)c2cc(F)cc(NC(C)=O)c2)CCN1C(=O)c1ccc(O[C@H]2CCNC2)c(C2CCCCC2)c1 [Compound 14, N-(3-((S)-4-(3-Cyclohexyl-4-(((S)-pyrrolidin-3-yl)oxy)benzoyl)-3-ethylpiperazine-1-carbonyl)-5-fluorophenyl) acetamide trifluoroacetate]		
